{"source": "patent US20080118494A1", "about": "“Compositions For Detection Of Latent Hiv Reactivation And Methods Of Using The Same” (priority 2004, published 2008)", "system": "latent HIV-1 infection in LWI6 cells", "assay": "Reactivation of latent HIV-1 in LWI6 reporter cells, EGFP plate based fluorometry (384-well)", "type": "cell-based", "conditions": "LWI6, 1×10^5 cells/well, 384-well plate", "description": "Latently HIV-1 infected reporter cell lines with an increased dynamic range of the EGFP signal. An indicator cell line with HTS feasibility was generated through stable transfection with a reporter plasmid in which the HIV-1 promoter (long terminal repeat; LTR) controls the expression of EGFP. Nucleic acid sequences for HIV-1 LTR (SEQ ID NO:1) can be accessed via GenBank Accession No. X03189. All of the information, including any nucleic acid and amino acid sequences provided for HIV-1 LTR under GenBank Accession X03189 is hereby incorporated in its entirety by this reference. […] In the resulting latently infected T cell clones (LWI4, LWI6, LWI7, LRJ3, LRJ5, LRJ12), maximal EGFP expression was increased by a factor of 10 in comparison to other reporter cell lines incorporating GFP into the HIV-1 genome when analyzed by flow cytometry (FIG. 1).\nAssay optimization in […] format plates. […] The need to work with low quantities of material and thus low numbers of reporter cells that are treated has to be balanced with the requirements to obtain a sufficiently high signal to background ratio to avoid false negative hits during the screen. […] Although EGFP fluorescence continued to increase up to the highest density of cells, wells with 1×10^5 cells gave a 40-fold increase of EGFP fluorescence intensity over background after 24 h, and an 80-fold increase after 48 h. […]", "data": [{"substance": "TNF-α", "values": [{"measurement": "increase of EGFP fluorescence intensity over background", "setting": "after 24 h", "result": 40, "unit": "fold"}, {"measurement": "increase of EGFP fluorescence intensity over background", "setting": "after 48 h", "result": 80, "unit": "fold"}]}]}
